Measured values from patent US12338244B2, “Temozolomide compounds, polymers prepared therefrom, and method of treating a disease” (University of Massachusetts, priority 2016, dated 2025).

How the values were obtained:
[1] = Stability of TMZ in organic solvents by UV-Vis spectroscopy; type: physicochemical; details: 0.01 mg/ml in 1:1 MeOH:DMSO
Procedure: This observation prompted investigation of the stability of TMZ in organic solvents, a property not previously reported to our knowledge. Solutions of TMZ (0.01 milligram per milliliter concentration) in 1:1 MeOH:DMSO, DMSO, ACN, and 2,2,2-trifluoroethanol (TFE) were incubated at room temperature, as well as elevated temperatures (e.g., 50° C. and 70° C.). […] The marked difference in stability of TMZ observed between MeOH and TFE was attributed to the poor nucleophilicity of the latter, which precludes rapid imidazotetrazine solvolysis.

[2] = tested on: U87MG cells; assay: CellTiter-Glo luminescent cell viability assay, cytotoxic effects on glioblastoma cell line; type: cell-based; details: Homo sapiens, U-87 MG, 168 h; U87MG (TMZ sensitive) cells, Day 7, doses 0-10000 μM
Procedure: Testing of the cytotoxic effects of polyMPC-TMZ on glioblastoma (GBM) cell lines utilized U87MG (TMZ sensitive cell line) and T98G (TMZ-resistant cell line). […] U87MG cells were plated on 96 well plates and cultured overnight in DMEM media containing 10% FBS at 37° C. in a CO2 incubator. The cells were treated with different doses of TMZ (0-10000 μM), polyMPC-TMZ-17% (random copolymer with 17 mole percent TMZ monomer) (0-10000 μM), polyMPC-TMZ-26% (random copolymer with 26% TMZ monomer) (0-10000 μM), polyMPC-TMZ-33% (random copolymer with 33% TMZ monomer) (0-10000 μM) or polyMPC-TMZ-50% random copolymer with 50 mole percent TMZ monomer) (0-10000 μM) and cell viability was tested on Day 7 using the CellTiter-Glo luminescent cell viability assay purchased from Promega, Inc. PolyMPC itself was used as a control polymer. […] All of the polyMPC-TMZ conjugates were efficacious, with a modified toxicity response as is typical of polymer prodrugs which mask the toxicity of the drug prior to making them available to the tumor. […] The higher IC50 values of polyMPC-TMZ will allow for introduction of larger drug doses in in vivo experiments.

For `Cn1nnc2c(C(N)=O)ncn2c1=O` [TMZ, Temozolomide], the “degradation in MeOH:DMSO mixture, heated” value ([1]; 50° C. or 70° C., after 1 hour) was “fully degraded”, the “degradation in MeOH:DMSO mixture, room temperature” value ([1]; room temperature) was “significant degradation” and the IC50 [2] was about 192 µM.
